Changes are numbered by the printed parent chain. Several values for one entry are separate records, joined by “and”; a condition that tells them apart may be missing. Equal values may be shown once. Read-outs that look alike come from different tables or passages of the source. Residues, ends and D or L forms follow the SMILES beside them.

For series [1], the system named is MDA-MB-435S breast cancer cells. In kind it is cell-based, human. As for the experimental part: Twelve different fusion constructs were analyzed for anti-cancer activity in vitro against MDA-MB-435S breast cancer cells and for hemolytic activity in vitro to human red blood cells. Fusion constructs of the following sequence were tested:
The peptide conjugates were freshly dissolved in saline and added into cancer cell seeded multi-well plates at increasing concentrations of 0, 0.001, 0.01, 0.1, 1, 2, 5, 10 and 100 μM. Incubations were conducted for 4 h at 37° C. Cell viability was determined using formazan conversion assays (MTT assays). Controls were treated with USP saline or 0.1% TritonX-100™ as reference for 0 and 100% cell death, respectively. Cytotoxicity was evaluated as an IC50 value.

Series [2] concerns human red blood cells. As to the kind of experiment: Hemolytic activity. The class given is cell-based. As for the experimental part:
Hemolytic activity was studied by incubating the fusion constructs with human red blood cells at concentrations of 0.01, 0.1, 1, 10 and 50 μM for 2 hours. Saline and 0.1% Triton served as controls.
Hemolytic activity of the compounds was studied by incubating EP-301 and EP-302 with human red blood cells at concentrations of 0.01, 0.1, 1, 10 and 50 μM for 2 hours.

Series [3] has as its target nucleolin expressed on the surface of human cancer cell lines (human, UniProt P19338). In words: cell-based or functional assay.
Where [4] appears, read: MDA-MB-435S, 4 h at 37° C, MTT, read-out: IC50.

For the molecule `CC(C)C[C@H](NC(=O)[C@H](CCCNC(=N)N)NC(=O)[C@H](C)NC(=O)[C@H](Cc1ccccc1)NC(=O)[C@H](CCCCN)NC(=O)[C@H](C)NC(=O)[C@H](Cc1ccccc1)NC(=O)[C@H](CCCCN)NC(=O)[C@H](CCCCN)NC(=O)[C@H](C)NC(=O)[C@H](Cc1ccccc1)NC(=O)[C@H](CCCCN)NC(=O)[C@H](C)NC(=O)[C@H](Cc1ccccc1)NC(=O)[C@H](CCCCN)NC(=O)[C@H](CCCCN)NC(=O)[C@H](C)NC(=O)[C@H](Cc1ccccc1)NC(=O)[C@H](CCCCN)NC(=O)[C@H](C)NC(=O)[C@H](Cc1ccccc1)NC(=O)[C@@H](N)CCCCN)C(=O)N[C@@H](Cc1ccccc1)C(=O)N[C@@H](C)C(=O)N[C@@H](CCCCN)C(=O)O` (H-KFAKFAKKFAKFAKKFAKFARLFAK-OH), in series [1] (setting [4]), the IC50 stood at 1230 ± 700 nM. Further, in series [2] (human red blood cells, 2 hours), the HA50 is 14.3 µM and 14.3 ± 2.1 µM. For `CC(C)C[C@H](NC(=O)[C@H](CCCNC(=N)N)NC(=O)[C@H](C)NC(=O)[C@H](CO)NC(=O)[C@H](CCCNC(=N)N)NC(=O)[C@H](CCCNC(=N)N)NC(=O)[C@H](CCC(N)=O)NC(=O)[C@@H]1CCCN1C(=O)[C@H](C)NC(=O)[C@H](CCCNC(=N)N)NC(=O)[C@H](CCCCN)NC(=O)[C@H](CCCCN)NC(=O)[C@H](C)NC(=O)[C@H](Cc1ccccc1)NC(=O)[C@H](CCCCN)NC(=O)[C@H](CCCCN)NC(=O)[C@H](C)NC(=O)[C@H](Cc1ccccc1)NC(=O)[C@H](CCCCN)NC(=O)[C@H](C)NC(=O)[C@H](Cc1ccccc1)NC(=O)[C@H](CCCCN)NC(=O)[C@H](CCCCN)NC(=O)[C@H](C)NC(=O)[C@H](Cc1ccccc1)NC(=O)[C@H](CCCCN)NC(=O)[C@H](C)NC(=O)[C@H](Cc1ccccc1)NC(=O)[C@@H](N)CCCCN)C(=O)N[C@@H](CO)C(=O)N[C@@H](C)C(=O)N[C@@H](CCCCN)C(=O)O` (H-KFAKFAKKFAKFAKKFAKKRAPQRRSARLSAK-OH; N-terminus and C-terminus assumed), in series [1] (4 h), the IC50 amounted to 7300 nM. Further, the HA50 entry in series [2] is recorded as “Not hemolytic”. `CC(C)C[C@H](NC(=O)[C@H](CCCNC(=N)N)NC(=O)[C@H](C)NC(=O)[C@H](CCCNC(=N)N)NC(=O)[C@H](CCCCN)NC(=O)[C@H](C)NC(=O)[C@H](Cc1ccccc1)NC(=O)[C@H](CCCCN)NC(=O)[C@H](CCCCN)NC(=O)[C@H](C)NC(=O)[C@H](Cc1ccccc1)NC(=O)[C@H](CCCCN)NC(=O)[C@H](C)NC(=O)[C@H](Cc1ccccc1)NC(=O)[C@H](CCCCN)NC(=O)[C@H](CCCCN)NC(=O)[C@H](C)NC(=O)[C@H](Cc1ccccc1)NC(=O)[C@H](CCCCN)NC(=O)[C@H](C)NC(=O)[C@H](Cc1ccccc1)NC(=O)[C@@H](N)CCCCN)C(=O)N[C@@H](CCC(N)=O)C(=O)O` (H-KFAKFAKKFAKFAKKFAKRARLQ-OH) yielded an IC50 in series [1] (4 h) of 3600 nM.

`CC(C)C[C@H](NC(=O)[C@H](CCCNC(=N)N)NC(=O)[C@H](C)NC(=O)[C@H](CCCNC(=N)N)NC(=O)[C@H](CCCCN)NC(=O)[C@H](C)NC(=O)[C@H](Cc1ccccc1)NC(=O)[C@H](CCCCN)NC(=O)[C@H](CCCCN)NC(=O)[C@H](C)NC(=O)[C@H](Cc1ccccc1)NC(=O)[C@H](CCCCN)NC(=O)[C@H](C)NC(=O)[C@H](Cc1ccccc1)NC(=O)[C@H](CCCCN)NC(=O)[C@H](CCCCN)NC(=O)[C@H](C)NC(=O)[C@H](Cc1ccccc1)NC(=O)[C@H](CCCCN)NC(=O)[C@H](C)NC(=O)[C@H](Cc1ccccc1)NC(=O)[C@@H](N)CCCCN)C(=O)N[C@@H](CCC(N)=O)C(=O)N[C@@H](CCCNC(=N)N)C(=O)N[C@@H](CCCNC(=N)N)C(=O)O` (H-KFAKFAKKFAKFAKKFAKRARLQRR-OH): the IC50 in series [1] (4 h) was 1600 ± 50 nM. In series [2], the HA50 result was “Not hemolytic”. In the same order, the values of `CC(C)C[C@H](NC(=O)[C@H](CCCNC(=N)N)NC(=O)[C@H](C)NC(=O)[C@H](CCCNC(=N)N)NC(=O)[C@H](CCCCN)NC(=O)[C@H](C)NC(=O)[C@H](Cc1ccccc1)NC(=O)[C@H](CCCCN)NC(=O)[C@H](CCCCN)NC(=O)[C@H](C)NC(=O)[C@H](Cc1ccccc1)NC(=O)[C@H](CCCCN)NC(=O)[C@H](C)NC(=O)[C@H](Cc1ccccc1)NC(=O)[C@H](CCCCN)NC(=O)[C@H](CCCCN)NC(=O)[C@H](C)NC(=O)[C@H](Cc1ccccc1)NC(=O)[C@H](CCCCN)NC(=O)[C@H](C)NC(=O)[C@H](Cc1ccccc1)NC(=O)[C@@H](N)CCCCN)C(=O)N[C@@H](CCC(N)=O)C(=O)N[C@@H](CCCNC(=N)N)C(=O)N[C@@H](CCCNC(=N)N)C(=O)N[C@@H](Cc1ccccc1)C(=O)O` (H-KFAKFAKKFAKFAKKFAKRARLQRRF-OH) are 870 ± 3 nM and “Not hemolytic”. On to `CC(C)C[C@H](NC(=O)[C@H](CCCNC(=N)N)NC(=O)[C@H](C)NC(=O)[C@H](Cc1ccccc1)NC(=O)[C@H](CCCNC(=N)N)NC(=O)[C@H](CCCNC(=N)N)NC(=O)[C@H](CCC(N)=O)NC(=O)[C@H](CC(C)C)NC(=O)[C@H](CCCNC(=N)N)NC(=O)[C@H](CCCCN)NC(=O)[C@H](C)NC(=O)[C@H](Cc1ccccc1)NC(=O)[C@H](CCCCN)NC(=O)[C@H](CCCCN)NC(=O)[C@H](C)NC(=O)[C@H](Cc1ccccc1)NC(=O)[C@H](CCCCN)NC(=O)[C@H](C)NC(=O)[C@H](Cc1ccccc1)NC(=O)[C@H](CCCCN)NC(=O)[C@H](CCCCN)NC(=O)[C@H](C)NC(=O)[C@H](Cc1ccccc1)NC(=O)[C@H](CCCCN)NC(=O)[C@H](C)NC(=O)[C@H](Cc1ccccc1)NC(=O)[C@@H](N)CCCCN)C(=O)N[C@@H](Cc1ccccc1)C(=O)N[C@@H](C)C(=O)N[C@@H](CCCCN)C(=O)O` (H-KFAKFAKKFAKFAKKFAKRLQRRFARLFAK-OH), for which, in series [1] (setting [4]), the IC50 amounted to 740 ± 120 nM. Take `CC(C)C[C@H](NC(=O)[C@H](CCCNC(=N)N)NC(=O)[C@H](C)NC(=O)[C@H](CO)NC(=O)[C@H](CCCCN)NC(=O)[C@H](C)NC(=O)[C@H](Cc1ccccc1)NC(=O)[C@H](CCCCN)NC(=O)[C@H](CCCCN)NC(=O)[C@H](C)NC(=O)[C@H](Cc1ccccc1)NC(=O)[C@H](CCCCN)NC(=O)[C@H](C)NC(=O)[C@H](Cc1ccccc1)NC(=O)[C@H](CCCCN)NC(=O)[C@H](CCCCN)NC(=O)[C@H](C)NC(=O)[C@H](Cc1ccccc1)NC(=O)[C@H](CCCCN)NC(=O)[C@H](C)NC(=O)[C@H](Cc1ccccc1)NC(=O)[C@@H](N)CCCCN)C(=O)N[C@@H](CO)C(=O)N[C@@H](C)C(=O)N[C@@H](CCCCN)C(=O)O` (H-KFAKFAKKFAKFAKKFAKSARLSAK-OH): inhibition in series [1] (4 h) was half-maximal at 4100 nM (IC50). Same read-out and setting: with `CC(C)C[C@H](NC(=O)[C@H](CCCNC(=N)N)NC(=O)[C@H](C)NC(=O)[C@H](Cc1ccccc1)NC(=O)[C@H](CCCNC(=N)N)NC(=O)[C@H](CCCNC(=N)N)NC(=O)[C@H](CCC(N)=O)NC(=O)[C@H](CC(C)C)NC(=O)[C@H](CCCNC(=N)N)NC(=O)[C@H](C)NC(=O)[C@@H](NC(=O)[C@H](CCCCN)NC(=O)[C@H](C)NC(=O)[C@H](Cc1ccccc1)NC(=O)[C@H](CCCCN)NC(=O)[C@H](CCCCN)NC(=O)[C@H](C)NC(=O)[C@H](Cc1ccccc1)NC(=O)[C@H](CCCCN)NC(=O)[C@H](C)NC(=O)[C@H](Cc1ccccc1)NC(=O)[C@H](CCCCN)NC(=O)[C@H](CCCCN)NC(=O)[C@H](C)NC(=O)[C@H](Cc1ccccc1)NC(=O)[C@H](CCCCN)NC(=O)[C@H](C)NC(=O)[C@H](Cc1ccccc1)NC(=O)[C@@H](N)CCCCN)C(C)C)C(=O)N[C@@H](Cc1ccccc1)C(=O)N[C@@H](C)C(=O)N[C@@H](CCCCN)C(=O)O` (H-KFAKFAKKFAKFAKKFAKVARLQRRFARLFAK-OH) the figure was 400 ± 2 nM.

B1: KFAKFAKKFAKFAKKFAKV19ARLQRRFARLFAK32 (peptide)
chain: KFAKFAKKFAKFAKKFAKVARLQRRFARLFAK
On to B1, for which the “IC50 of cytotoxicity (MTT), MDA-MB-435S breast cancer cells, 4 h” value (“IC50 of cytotoxicity (MTT)” for short) in series [3] stood at 400 nM.

B2: KFAKFAKKFAKFAKKFAKR19ARLQ23 (peptide)
chain: KFAKFAKKFAKFAKKFAKRARLQ
On to B2, for which the “IC50 of cytotoxicity (MTT)” value in series [3] is 3600 nM.

B3: KFAKFAKKFAKFAKKFAKF19ARLFAK25 (peptide)
chain: KFAKFAKKFAKFAKKFAKFARLFAK
As to B3, the “IC50 of cytotoxicity (MTT)” value in series [3] turned out to be 1230 nM.

B4: KFAKFAKKFAKFAKKFAKR19ARLQRRF26 (peptide)
chain: KFAKFAKKFAKFAKKFAKRARLQRRF
On to B4, for which the “IC50 of cytotoxicity (MTT)” value in series [3] was 870 nM.

B5: KFAKFAKKFAKFAKKFAKS19ARLSAK25 (peptide)
chain: KFAKFAKKFAKFAKKFAKSARLSAK
In the case of B5, the “IC50 of cytotoxicity (MTT)” value in series [3] was found to be 4100 nM.

B6: KFAKFAKKFAKFAKKFAKR19ARLQRR25 (peptide)
chain: KFAKFAKKFAKFAKKFAKRARLQRR
Take B6: in series [3], the “IC50 of cytotoxicity (MTT)” value turned out to be 1600 nM.

B7: KFAKFAKKFAKFAKKFAKV19ARLQRRFA27 (peptide)
chain: KFAKFAKKFAKFAKKFAKVARLQRRFA
As to B7, the “IC50 of cytotoxicity (MTT)” value in series [3] is 800 nM.

B8: KFAKFAKKFAKFAKKFAKK19RAPQRRSARLSAK32 (peptide)
chain: KFAKFAKKFAKFAKKFAKKRAPQRRSARLSAK
For the molecule B8, the “IC50 of cytotoxicity (MTT)” value in series [3] was determined as 7300 nM.

B9: KFAKFAKKFAKFAKKFAKR19LQRRFARLFAK30 (peptide)
chain: KFAKFAKKFAKFAKKFAKRLQRRFARLFAK
Take B9: the “IC50 of cytotoxicity (MTT)” value in series [3] came to 740 nM.

B10: KFAKFAKKFAKFAKKFAKR19LQRRSARLSAK30 (peptide)
chain: B9 chain with F24S, F28S
Turning to B10, in series [3], the “IC50 of cytotoxicity (MTT)” value was 2200 nM.

The term IC50 denotes the midpoint of a concentration-inhibition curve.

Source of the values: US20110124564A1, “NUCLEOLIN-BINDING PEPTIDES, NUCLEOLIN- BINDING LYTIC PEPTIDES, FUSION CONSTRUCTS AND METHODS OF MAKING AND USING SAME” (ESPERANCE PHARMACEUTICALS, INC., published 2011).
